Laboratory results: US20250222009A1, “DINUCLEAR GOLD(I) COMPLEXES FOR TREATING CANCER” (KING FAHD UNIVERSITY OF PETROLEUM AND MINERALS, priority 2024, published 2025)

What was measured:
[1] = tested on: A549 cells; assay: Mitochondrial ROS generation (MitoSOX Red); format: cell-based, human; settings: A549, 48 h
Method: 2.0×10^5 A549 cells were seeded in 6-well plates in a complete medium and treated with the complex 3. Assay results were detected by flow cytometry on a BD FACSCanto II flow cytometer. Data were analyzed using BD FACSDiva v.8.0.1 software (BD Biosciences) unless otherwise indicated. Tumor cells were treated for 72 h with complex 3, then stained for 15 minutes with FITC Annexin-V (Thermo Fisher Scientific) and 7AAD (BD Pharmingen, Milan, Italy). Activated caspase-3,7 was detected using the CaspaTag Caspase-3,7 assay (Merck Millipore) after an incubation of 24 h with complex 3. For B-cell lymphoma/leukemia-2 protein (Bcl-2) and Bcl-2 associated x protein (Bax) analysis, cells were treated for 72 h with C3, then fixed and permeabilized (FIX & PERM Cell Fixation & Cell Permeabilization Kit, Life Technologies). […] The distribution of cells in different cell cycle phases was quantified using ModFit LT 4.0 software (Verity Software House, Topsham, ME, USA) (See: Sulaiman, A. A. A.; Casagrande, N.; Borghese, C.; Corona, G.; Isab, A. A.; Ahmad, S.; Aldinucci, D.; Altaf M. Design, Synthesis, and Preclinical Activity in Ovarian Cancer Models of New Phosphanegold(I)—N-Heterocyclic Carbene Complexes. J Med Chem 2022, 65, 14424-14440, which is incorporated herein by reference in its entirety). […]

[2] = tested on: 20S proteasome; assay: 20S Proteasome Activity Assay in treated cell lysates; format: cell-based, human; settings: A549 cells treated 4 h
Method: Cells were treated with complex 3 (4 h), and then cells were lysed in 50 mM Tris-HCl pH 7.6, 0.1% Triton X-100, 0.9% NaCl to obtain the Proteasome activity (EC 3.4.25.1). The proteasome activity was tested using the 20S Proteasome Activity Assay kit APT280 (Merck Millipore) and a computer-interfaced GeniusPlus microplate reader (Tecan Trading AG, Switzerland). The activity was normalized to the protein concentration and expressed as a percentage of control (untreated cells).

CC(C)c1cccc(C(C)C)c1-n1ccn(-c2c(C(C)C)cccc2C(C)C)[c]1=[Au-][P+](CCNCC[P+]([Au-]=[c]1n(-c2c(C(C)C)cccc2C(C)C)ccn1-c1c(C(C)C)cccc1C(C)C)(C1CCCCC1)C1CCCCC1)(C1CCCCC1)C1CCCCC1 [Complex 3, [(Au(IPr))2(C28H24P2)](PF6)2]
mitochondrial reactive oxygen species (mit-ROS) [1]: increased | 20S proteasome activity [2]: inhibited in a dose-dependent manner
